Source: patent US12655116B2, “Substituted isophthalic acid diamides” (Bayer Aktiengesellschaft, priority 2020, dated 2026)

How the values were obtained:
VIOTR [1] = assay: Post-emergence herbicidal action against VIOTR; type: in vivo, Viola tricolor; settings: 20 g/ha
Method: (§1) Seeds of monocotyledonous and dicotyledonous weed and crop plants are laid out in sandy loam soil in wood-fiber pots, covered with soil and cultivated in a greenhouse under good growth conditions. 2 to 3 weeks after sowing, the test plants are treated at the one-leaf stage. The compounds of the invention, formulated in the form of wettable powders (WP) or as emulsion concentrates (EC), are then sprayed onto the green parts of the plants in the form of an aqueous suspension or emulsion at a water application rate equivalent to 600 to 800 l/ha, with addition of 0.2% wetting agent. After the test plants have been left to stand in the greenhouse under optimal growth conditions for about 3 weeks, the action of the preparations is assessed visually in comparison to untreated controls (herbicidal action in percent (%): 100% activity=the plants have died, 0% activity=like control plants). […] The tables below illustrate, in an illustrative manner, the post-emergence herbicidal action of the compounds of the invention, the herbicidal activity being stated in percent.

AMARE [2] = assay: Pre-emergence herbicidal action against AMARE; type: in vivo, Amaranthus retroflexus
Excerpt: (§2) Seeds of monocotyledonous and dicotyledonous weed plants and crop plants are laid out in sandy loam soil in wood-fiber pots and covered with soil. The compounds of the invention, formulated in the form of wettable powders (WP) or as emulsion concentrates (EC), are then applied to the surface of the covering soil in the form of an aqueous suspension or emulsion at a water application rate equivalent to 600 to 800 l/ha, with addition of 0.2% wetting agent. After the treatment, the pots are placed in a greenhouse and kept under good growth conditions for the trial plants. The damage to the test plants is scored visually after a test period of 3 weeks by comparison with untreated controls (herbicidal activity in percent (%): 100% activity=the plants have died, 0% activity=like control plants). […] The tables below illustrate, in an illustrative manner, the post-emergence herbicidal action of the compounds of the invention, the herbicidal activity being stated in percent.

VIOTR [3] = assay: Pre-emergence herbicidal action against VIOTR; type: in vivo, Viola tricolor
Excerpt: as §2

AMARE [4] = assay: Post-emergence herbicidal action against AMARE; type: in vivo, Amaranthus retroflexus; settings: 20 g/ha, visual assessment about 3 weeks after treatment, 100% = plants have died, 0% = like control plants
Method: as §1

DIGSA = assay: Pre-emergence herbicidal action against DIGSA; type: in vivo, Digitaria sanguinalis
Excerpt: as §2

ABUTH [5] = assay: Pre-emergence herbicidal action against ABUTH; type: in vivo, Abutilon theophrasti; settings: for Pre-emergence action against ABUTH (herbicidal activity in percent): dosage 20 g/ha, scored visually after 3 weeks vs untreated controls, 100% = plants have died, 0% = like control plants
Excerpt: as §2

MATIN = assay: Pre-emergence herbicidal action against MATIN; type: in vivo, Matricaria inodora
Excerpt: as §2

ECHCG [6] = assay: Pre-emergence herbicidal action against ECHCG; type: in vivo, Echinochloa crus-galli; settings: 80 g/ha
Excerpt: as §2

ABUTH [7] = assay: Post-emergence herbicidal action against ABUTH; type: in vivo, Abutilon theophrasti; settings: dosage 20 g/ha, visual assessment about 3 weeks after treatment vs untreated controls
Method: as §1

ECHCG [8] = assay: Post-emergence herbicidal action against ECHCG; type: in vivo, Echinochloa crus-galli
Method: as §1

SETVI [9] = assay: Pre-emergence herbicidal action against SETVI; type: in vivo, Setaria viridis
Excerpt: as §2

SETVI [10] = assay: Post-emergence herbicidal action against SETVI; type: in vivo, Setaria viridis; settings: dosage 20 g/ha
Method: as §1

[11] = 80 g/ha, scored visually after 3 weeks vs untreated controls (100% = plants have died, 0% = like control plants)
[12] = 20 g/ha, scored visually after 3 weeks vs untreated controls, 100% = plants have died, 0% = like control plants

Row | Compound | Pre-emergence action against AMARE in % (AMARE [2]; [11]) [%] | Post-emergence action at 20 g/ha against AMARE in % (AMARE [4]) [%] | Pre-emergence action against AMARE in % (AMARE [2]; [12]) [%] | Pre-emergence action against MATIN in % (MATIN; dosage 80 g/ha) [%] | Pre-emergence action against ABUTH (herbicidal activity) (ABUTH [5]; [11]) [%] | Pre-emergence action against DIGSA in % (DIGSA; dosage 80 g/ha) [%] | Post-emergence action against ECHCG in % (ECHCG [8]; dosage 20 g/ha) [%] | other results
1 | Cn1nnnc1NC(=O)c1ccc(C(F)(F)F)c(C(=O)NCC#N)c1Cl [Example 1-140] | 100 | 80 | – | – | – | – | – | Post-emergence action against VIOTR in % (VIOTR [1]): 80%; Pre-emergence action against VIOTR in % (VIOTR [3]; dosage 80 g/ha): 90%
2 | Cn1nnnc1NC(=O)c1ccc(C(F)(F)F)c(C(=O)Nc2ccccc2)c1Cl [Example 1-143] | – | – | – | – | – | – | – | pest or weed control at 80 g/ha (DIGSA; Digitaria sanguinalis, 504 h, dosage 80 g/ha): 80%; pest or weed control at 80 g/ha (ABUTH [5]; Abutilon theophrasti, 504 h, 80 g/ha, scored visually after 3 weeks vs untreated controls (100% = plants have died, 0% = like control plants)): 100%; pest or weed control at 80 g/ha (AMARE [2]; Amaranthus retroflexus, 504 h, 80 g/ha, scored visually after 3 weeks vs untreated controls, 100% = plants have died, 0% = like control plants): 100%; pest or weed control at 20 g/ha (MATIN; Tripleurospermum inodorum, 504 h, dosage 20 g/ha): 80%; pest or weed control at 80 g/ha (MATIN; Tripleurospermum inodorum, 504 h, dosage 80 g/ha): 100%
3 | CSCCNC(=O)c1c(C(F)F)ccc(C(=O)Nc2nnnn2C)c1Cl [Example 1-157] | 100 | – | – | – | – | – | – | –
4 | CCn1nnnc1NC(=O)c1ccc(C(F)F)c(C(=O)NCCSC)c1Cl [Example 2-157] | 90 | 90 | – | – | – | – | – | –
5 | CCn1nnnc1NC(=O)c1ccc(C(F)F)c(C(=O)NCc2cccs2)c1Cl [Example 2-162] | 100 | 100 | 90 | 90 | – | – | – | Pre-emergence action against VIOTR in % (VIOTR [3]; dosage 80 g/ha): 80%; Pre-emergence action against ECHCG in % (ECHCG [6]): 80%
6 | CCn1nnnc1NC(=O)c1ccc(C(F)F)c(C(=O)NCCSC)c1C [Example 2-347] | – | – | – | – | 100 | – | – | –
7 | N#CCNC(=O)c1c(C(F)(F)F)ccc(C(=O)Nc2nnco2)c1Cl [Example 5-254] | 100 | 80 | – | – | 100 | – | – | Pre-emergence action against VIOTR in % (VIOTR [3]; dosage 80 g/ha): 90%
8 | CNC(=O)c1c(C(F)F)ccc(C(=O)Nc2nnc(C)o2)c1OC [Example 6-49] | 100 | – | 80 | – | – | – | – | Post-emergence action against VIOTR in % (VIOTR [1]): 80%; Pre-emergence action against VIOTR in % (VIOTR [3]; dosage 20 g/ha): 80%; Pre-emergence action against VIOTR in % (VIOTR [3]; dosage 80 g/ha): 80%; Post-emergence action against ABUTH in % (ABUTH [7]): 80%
9 | CCNC(=O)c1c(C(F)F)ccc(C(=O)Nc2nnc(C)o2)c1OC [Example 6-50] | 100 | – | 100 | 80 | 90 | 100 | 80 | Post-emergence action against VIOTR in % (VIOTR [1]): 80%; Post-emergence action against ABUTH in % (ABUTH [7]): 80%
10 | COc1c(C(=O)Nc2nnc(C)o2)ccc(C(F)F)c1C(=O)NC1CC1 [Example 6-51] | 100 | – | 80 | – | 100 | 100 | 80 | –
11 | CSc1c(C(=O)Nc2nnc(C)o2)ccc(C(F)(F)F)c1C(=O)NC1CC1 [Example 6-60] | 100 | 100 | – | 90 | 90 | – | 90 | Post-emergence action against ABUTH in % (ABUTH [7]): 90%; Pre-emergence action against ECHCG in % (ECHCG [6]): 80%
12 | CSc1c(C(=O)Nc2nnc(C)o2)ccc(C(F)F)c1C(=O)NC1CC1 [Example 6-76] | 100 | 100 | – | 90 | – | – | 80 | Pre-emergence action against SETVI in % (SETVI [9]; dosage 80 g/ha): 80%; Post-emergence action against SETVI in % (SETVI [10]): 80%
13 | Cc1nnc(NC(=O)c2ccc(Br)c(C(=O)NCC3CC3)c2Cl)o1 [Example 6-143] | 100 | – | 100 | – | 100 | 100 | – | Pre-emergence action against ABUTH (herbicidal activity in percent) (ABUTH [5]): 100%
14 | Cc1nnc(NC(=O)c2ccc(Br)c(C(=O)NCC(F)(F)F)c2Cl)o1 [Example 6-144] | 100 | – | 90 | 80 | 90 | 100 | 80 | Pre-emergence action against DIGSA in % (DIGSA; dosage 20 g/ha): 90%; Pre-emergence action against SETVI in % (SETVI [9]; dosage 80 g/ha): 90%; Pre-emergence action against ECHCG in % (ECHCG [6]): 100%
15 | Cc1nnc(NC(=O)c2ccc(C(F)F)c(C(=O)NCC3CC3)c2Br)o1 [Example 6-167] | 100 | 100 | 100 | 90 | 100 | 90 | 80 | Pre-emergence action against ABUTH (herbicidal activity in percent) (ABUTH [5]): 90%; Pre-emergence action against SETVI in % (SETVI [9]; dosage 20 g/ha): 80%; Pre-emergence action against SETVI in % (SETVI [9]; dosage 80 g/ha): 80%; Pre-emergence action against VIOTR in % (VIOTR [3]; dosage 20 g/ha): 90%; Pre-emergence action against VIOTR in % (VIOTR [3]; dosage 80 g/ha): 100%; Pre-emergence action against ECHCG in % (ECHCG [6]): 100%
16 | Cc1nnc(NC(=O)c2ccc(C(F)F)c(C(=O)NC3CC3)c2C2CC2)o1 [Example 6-233] | 80 | – | – | – | – | 90 | 80 | –
17 | Cc1nnc(NC(=O)c2ccc(Br)c(C(=O)NC(C)C3CC3)c2Cl)o1 (stereo not shown) [Example 6-257] | 100 | – | – | 90 | 100 | 100 | 90 | Pre-emergence action against MATIN in % (MATIN; dosage 20 g/ha): 80%; Post-emergence action against ECHCG in % (ECHCG [8]; dosage 5 g/ha): 80%; Pre-emergence action against ECHCG in % (ECHCG [6]): 80%
18 | Cc1nnc(NC(=O)c2ccc(C(F)F)c(C(=O)NCC(=O)N(C)C)c2Cl)o1 [Example 6-265] | 80 | – | – | – | – | – | – | –
